Measurements as given in BindingDB's records for PubMed 3139864 (Vanderbilt University, 1988).

Target: T1, 5-hydroxytryptamine receptor 2C (Rattus norvegicus, UniProt P08909)
T1 sequence (P08909 whole entry): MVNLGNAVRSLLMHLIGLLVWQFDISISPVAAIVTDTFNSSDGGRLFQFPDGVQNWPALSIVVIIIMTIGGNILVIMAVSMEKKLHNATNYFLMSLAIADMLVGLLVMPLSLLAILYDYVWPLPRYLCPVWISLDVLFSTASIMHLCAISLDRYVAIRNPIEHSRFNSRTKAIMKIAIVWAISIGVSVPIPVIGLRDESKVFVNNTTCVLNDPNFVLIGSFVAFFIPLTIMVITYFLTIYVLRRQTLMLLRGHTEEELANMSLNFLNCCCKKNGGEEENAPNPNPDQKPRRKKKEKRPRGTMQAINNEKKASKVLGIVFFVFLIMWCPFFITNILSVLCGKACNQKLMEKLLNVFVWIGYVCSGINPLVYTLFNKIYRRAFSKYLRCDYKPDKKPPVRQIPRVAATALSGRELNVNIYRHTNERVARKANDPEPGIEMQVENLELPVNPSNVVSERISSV

For `CN(C)CCCN1c2ccccc2CCc2ccccc21`, which Ki is on record?
The Ki was 100 nM.

Which Ki does the source give for `O=C(c1ccc(F)cc1)C1CCN(CCn2c(=O)[nH]c3ccccc3c2=O)CC1` [3-(2-{4-[(4-fluorophenyl)carbonyl]piperidin-1-yl}ethyl)-1,2,3,4-tetrahydroquinazoline-2,4-dione] here?
Its Ki is 30 nM.

With `CC1(C)CC(=O)N(CCCCN2CCN(c3ncccn3)CC2)C(=O)C1` [4,4-Dimethyl-1-[4-(4-pyrimidin-2-yl-piperazin-1-yl)-butyl]-piperidine-2,6-dione] as the compound, how does the Ki read?
Its Ki is over 10000 nM.

With `CN(C)CCC(c1ccc(Cl)cc1)c1ccccn1` (centres undefined) [clorfeniramina] as the compound, how does the Ki read?
The Ki was 3120 nM.
